# According to ChEMBL document CHEMBL1201862, “PubChem BioAssay data set” (2004):
# Active and inactive are the calls of the source.
# Tests used:
# [1] = molecular target: Peroxisome proliferator-activated receptor gamma/Nuclear receptor coactivator 3 (Homo sapiens, UniProt P37231); test: TR-FRET dose response biochemical High Throughput Screening assay for agonists of the steroid receptor coactivator 3 (SRC-3) recruitment by the peroxisome proliferator-activated receptor gamma (PPAR gamma): non-selective agonists. [Related pubchem assays: 1301 (Confirmation screen.), 1048 (Primary screen.)]; format: functional
# [2] = molecular target: Peroxisome proliferator-activated receptor gamma/Nuclear receptor coactivator 2 (Homo sapiens, UniProt P37231); test: (§1) TR-FRET dose response biochemical High Throughput Screening assay for agonists of the steroid receptor coactivator 2 (SRC-2) recruitment by the peroxisome proliferator-activated receptor gamma (PPAR gamma): non-selective agonists. [Related pubchem assays: 1297, 1032 ]; format: functional
# [3] = molecular target: Peroxisome proliferator-activated receptor gamma/Nuclear receptor coactivator 1 (Homo sapiens, UniProt P37231); test: as §1, with “1 (SRC-1)” for “2 (SRC-2)”, “assays (depositor defined):AID1300, AID1808, AID504735, AID631]” for “assays: 1297, 1032 ]”; format: protein assay
# [4] = molecular target: T1, Alkaline phosphatase, tissue-nonspecific isozyme (Homo sapiens, UniProt P05186); test: potency against alkaline phosphatase TNAP – biochemical, luminescent, dose response, SAR follow-up (AID 1056)
# T1 sequence (P05186 whole entry): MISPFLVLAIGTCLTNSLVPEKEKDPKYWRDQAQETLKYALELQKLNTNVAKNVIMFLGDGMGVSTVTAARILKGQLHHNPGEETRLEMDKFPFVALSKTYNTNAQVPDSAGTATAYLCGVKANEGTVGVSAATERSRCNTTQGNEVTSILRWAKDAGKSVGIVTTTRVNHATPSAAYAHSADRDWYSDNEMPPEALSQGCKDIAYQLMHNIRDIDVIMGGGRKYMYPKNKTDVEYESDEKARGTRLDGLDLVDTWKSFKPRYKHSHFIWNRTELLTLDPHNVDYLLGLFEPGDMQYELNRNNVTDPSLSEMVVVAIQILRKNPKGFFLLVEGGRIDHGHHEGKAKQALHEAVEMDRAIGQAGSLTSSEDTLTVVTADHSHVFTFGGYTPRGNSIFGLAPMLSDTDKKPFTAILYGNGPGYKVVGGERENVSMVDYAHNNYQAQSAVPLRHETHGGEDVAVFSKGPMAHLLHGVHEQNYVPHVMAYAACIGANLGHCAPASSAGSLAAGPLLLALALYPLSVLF
# [5] = molecular target: Glyceraldehyde-3-phosphate dehydrogenase (Homo sapiens, UniProt P04406)
# [6] = molecular target: T2, Rac GTPase-activating protein 1 (Homo sapiens, UniProt Q9H0H5); test: blockers of MgcRacGAP-driven Rac1 GTP hydrolysis – biochemical, ADP Hunter fluorescence, primary and confirmatory, confirmation (AID 624330); format: functional
# T2 sequence (Q9H0H5 whole entry): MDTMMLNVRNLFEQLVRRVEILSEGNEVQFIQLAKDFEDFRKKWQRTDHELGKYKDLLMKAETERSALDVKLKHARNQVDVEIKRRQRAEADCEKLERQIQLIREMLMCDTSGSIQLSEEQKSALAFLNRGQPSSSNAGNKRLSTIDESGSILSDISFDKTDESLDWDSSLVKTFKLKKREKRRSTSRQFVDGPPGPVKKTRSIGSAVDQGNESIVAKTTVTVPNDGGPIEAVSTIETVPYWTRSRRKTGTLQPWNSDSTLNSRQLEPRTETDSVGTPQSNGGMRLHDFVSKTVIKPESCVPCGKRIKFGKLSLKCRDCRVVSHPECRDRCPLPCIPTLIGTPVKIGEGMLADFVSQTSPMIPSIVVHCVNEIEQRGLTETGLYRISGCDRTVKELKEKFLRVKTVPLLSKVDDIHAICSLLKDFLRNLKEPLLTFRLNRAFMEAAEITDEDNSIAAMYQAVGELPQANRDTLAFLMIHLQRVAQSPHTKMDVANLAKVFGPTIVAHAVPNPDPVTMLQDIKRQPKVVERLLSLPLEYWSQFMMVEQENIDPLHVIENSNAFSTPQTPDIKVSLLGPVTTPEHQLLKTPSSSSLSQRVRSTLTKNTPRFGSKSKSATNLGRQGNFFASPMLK
# Coagulation factor XII = molecular target: T3, Coagulation factor XII (Homo sapiens, UniProt P00748); format: functional;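 also: activated factor XIIa alpha cleaving a fluorogenic AMC peptide substrate; inhibitor potency from loss of enzyme activity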
# T3 sequence (P00748 whole entry): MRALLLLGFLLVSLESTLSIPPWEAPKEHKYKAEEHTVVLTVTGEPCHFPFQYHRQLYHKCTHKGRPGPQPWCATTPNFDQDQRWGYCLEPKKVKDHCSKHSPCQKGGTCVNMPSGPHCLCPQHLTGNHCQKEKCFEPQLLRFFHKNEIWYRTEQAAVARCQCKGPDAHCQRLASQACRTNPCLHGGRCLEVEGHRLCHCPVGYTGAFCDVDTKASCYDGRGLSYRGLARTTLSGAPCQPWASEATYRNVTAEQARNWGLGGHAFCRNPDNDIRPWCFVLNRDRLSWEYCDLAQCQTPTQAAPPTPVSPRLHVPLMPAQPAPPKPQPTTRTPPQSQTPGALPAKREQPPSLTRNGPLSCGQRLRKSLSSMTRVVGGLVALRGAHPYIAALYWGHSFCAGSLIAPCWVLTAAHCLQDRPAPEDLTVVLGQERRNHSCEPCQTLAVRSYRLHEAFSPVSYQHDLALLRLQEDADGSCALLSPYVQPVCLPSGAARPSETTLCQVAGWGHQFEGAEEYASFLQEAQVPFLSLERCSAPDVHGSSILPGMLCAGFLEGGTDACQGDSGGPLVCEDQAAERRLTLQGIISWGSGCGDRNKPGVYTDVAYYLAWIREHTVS
# [7] = viability loss in HeLa cells – cytotoxicity control for MgcRacGAP inhibitor project, dose response (AID 624300); format: functional
# [8] = molecular target: Induced myeloid leukemia cell differentiation protein Mcl-1 (Homo sapiens, UniProt Q07820); format: functional
# [9] = molecular target: DNA dC->dU-editing enzyme APOBEC-3A (Homo sapiens, UniProt P31941); test: Dose Response confirmation of small molecule APOBEC3A DNA Deaminase Inhibitors via a fluorescence-based single-stranded DNA deaminase assay. [Related pubchem assays (depositor defined):AID493011, AID493024]; format: functional
# [10] = molecular target: DNA dC->dU-editing enzyme APOBEC-3G (Homo sapiens, UniProt Q9HC16); format: functional;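 also: Dose-response counterscreen measuring inhibition of APOBEC3G DNA deaminase activity, run while confirming APOBEC3A inhibitors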
# Streptococcus = test: GAS UMAA2166 growth inhibition – luminescence, BacTiterGlo, counter-screen for streptokinase expression inhibitor project, dose response (AID 1915); format: functional, organism-based;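 also: potency for reduction of bacterial viability or growth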
# [11] = molecular target: T4, Serine/threonine-protein phosphatase (Candida dubliniensis (strain CD36 / CBS 7987 / NCPF 3949 / NRRLY-17841) (Yeast), UniProt B9W6M3); test: blockers of CaCl2-induced CDRE-lacZ signaling – S. cerevisiae, luminescence, secondary, dose response (AID 2388); format: functional, cell-based;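 also: yeast reporter cells carrying a calcineurin-responsive lacZ construct stimulated with calcium chloride; luminescent beta-galactosidase reporter signal in whole cells rather than isolated phosphatase activity; potency for inhibition where a drop in reporter signal means calcineurin blockade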
# T4 sequence (B9W6M3 whole entry): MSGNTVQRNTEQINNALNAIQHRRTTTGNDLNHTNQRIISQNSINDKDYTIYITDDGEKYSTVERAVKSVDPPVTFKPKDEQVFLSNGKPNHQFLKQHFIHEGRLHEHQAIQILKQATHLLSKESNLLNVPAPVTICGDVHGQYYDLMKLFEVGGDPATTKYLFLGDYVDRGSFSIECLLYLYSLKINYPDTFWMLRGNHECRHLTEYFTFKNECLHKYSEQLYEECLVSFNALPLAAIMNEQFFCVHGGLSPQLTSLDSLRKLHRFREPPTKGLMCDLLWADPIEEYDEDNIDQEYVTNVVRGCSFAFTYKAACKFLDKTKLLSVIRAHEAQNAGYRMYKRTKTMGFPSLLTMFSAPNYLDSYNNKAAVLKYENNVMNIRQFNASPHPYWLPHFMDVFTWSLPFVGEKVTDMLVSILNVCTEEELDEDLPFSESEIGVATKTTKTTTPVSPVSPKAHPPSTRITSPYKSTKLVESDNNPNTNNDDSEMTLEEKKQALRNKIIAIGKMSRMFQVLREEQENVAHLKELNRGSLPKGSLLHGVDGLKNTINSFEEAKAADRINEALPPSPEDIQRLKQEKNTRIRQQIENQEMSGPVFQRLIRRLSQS
# Exodeoxyribonuclease V = Exodeoxyribonuclease V (Escherichia coli (strain K12), UniProt P04993+P07648+P08394); test: RecBCD inhibition via phage-restricted bacterial growth – absorbance, V66 E. coli, mutant T4 phage, counter-screen for AddAB inhibitor project, dose response (AID 492957); format: functional, cell-based, Escherichia coli str. K-12 substr. MG1655
# [12] = fluconazole-exposed Candida albicans growth modulators – fluorescence, retest, confirmation (AID 2467); format: functional, cell-based
# [13] = NIH-3T3 fibroblast cytotoxicity, dose response, cytotoxicity control, cell-based, fluorescence, Alamar Blue, secondary assay (AID 2327); format: functional;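 also: NIH-3T3 mouse fibroblasts cultured with fluconazole at 8 µg/mL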
# [14] = molecular target: T5, Kappa-type opioid receptor (Homo sapiens, UniProt P41145); format: functional
# [15] = molecular target: ATP-dependent molecular chaperone HSP82 (Candida albicans (strain WO-1) (Yeast), UniProt C4YTQ8); test: steroid-induced GRE reporter decrease in yeast – S. cerevisiae, luminescence, Hsp90 inhibitor project, dose response (AID 2400); format: functional, cell-based;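 also: beta-galactosidase luminescence from glucocorticoid response element reporter as proxy for Hsp90 function; inhibitor potency where signal loss means Hsp90 inhibition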
# INS1 = test: INS-1E survival protection against cytokine death – cell-based, luminescence, retest, dose response (AID 449756); format: functional; conditions: Rattus norvegicus;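 also: cell death triggered by IL-1 beta plus TNF-alpha plus IFN-gamma mixture; protective hits raise ATP signal compared with cytokine alone wells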
# [16] = Trypanosoma cruzi growth suppression in host cells – NIH3T3 host cells, beta-gal luminescence, confirmation (AID 2044); format: functional, cell-based;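 also: intracellular parasites grown in NIH/3T3 mouse fibroblasts as host cells; luminescent beta-galactosidase reporter signal from transgenic T. cruzi replicating inside host cells; inhibitors lower the luminescence signal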
# [17] = NIH3T3 cell viability loss – ATP luminescence, mouse fibroblasts, counter-screen, dose response (AID 2010); format: functional, cell-based;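 also: cells exposed to compound for about 90 hours before reading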
# [18] = test system: Streptococcus sp. 'group A'; test: Streptococcus pyogenes SK(-)GAS viability under kanamycin – luminescence, BacTiterGlo, confirmation, counter-screen for streptokinase expression inhibitor project, dose response (AID 1900); format: functional, organism-based
# [19] = Counterscreen for AddAB inhibitors: absorbance-based bacterial cell-based high throughput dose response assay for inhibitors of bacterial viability. [Related pubchem assays (depositor defined):AID435030, AID449728, AID449731, AID488942, AID488955, AID488956]; format: functional
# [20] = molecular target: T5, Kappa-type opioid receptor; format: functional; remark: listed apart in the source
# Beta-galactosidase = Beta-galactosidase (Escherichia coli, UniProt Q8VNN2); format: functional
# T5 sequence (P41145 whole entry): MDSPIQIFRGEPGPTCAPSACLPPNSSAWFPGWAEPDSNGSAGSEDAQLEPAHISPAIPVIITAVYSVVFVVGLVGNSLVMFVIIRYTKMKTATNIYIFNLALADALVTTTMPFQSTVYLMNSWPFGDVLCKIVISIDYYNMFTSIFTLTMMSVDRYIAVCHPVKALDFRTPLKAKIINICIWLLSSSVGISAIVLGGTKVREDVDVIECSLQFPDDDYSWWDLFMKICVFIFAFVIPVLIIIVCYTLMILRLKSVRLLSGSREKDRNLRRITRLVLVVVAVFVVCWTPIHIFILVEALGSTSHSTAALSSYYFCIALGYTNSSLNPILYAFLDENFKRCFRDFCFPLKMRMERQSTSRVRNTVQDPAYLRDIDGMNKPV
# Sequence of Peroxisome proliferator-activated receptor gamma/Nuclear receptor coactivator 1 (P37231 whole entry): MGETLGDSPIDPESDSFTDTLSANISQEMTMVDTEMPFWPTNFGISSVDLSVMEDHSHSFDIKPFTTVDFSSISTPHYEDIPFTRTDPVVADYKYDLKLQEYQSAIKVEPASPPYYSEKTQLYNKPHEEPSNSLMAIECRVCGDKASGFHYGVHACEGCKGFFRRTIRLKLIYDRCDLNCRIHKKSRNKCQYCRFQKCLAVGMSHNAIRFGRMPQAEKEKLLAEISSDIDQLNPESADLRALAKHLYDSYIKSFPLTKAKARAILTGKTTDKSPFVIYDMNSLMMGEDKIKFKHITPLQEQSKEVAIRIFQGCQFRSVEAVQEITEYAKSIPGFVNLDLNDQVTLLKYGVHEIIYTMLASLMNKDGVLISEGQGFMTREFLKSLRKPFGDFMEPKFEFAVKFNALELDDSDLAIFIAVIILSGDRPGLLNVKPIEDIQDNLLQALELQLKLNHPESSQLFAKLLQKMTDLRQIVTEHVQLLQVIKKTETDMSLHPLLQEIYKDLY
# Sequence of Peroxisome proliferator-activated receptor gamma/Nuclear receptor coactivator 1 (Q15788 whole entry, further chain): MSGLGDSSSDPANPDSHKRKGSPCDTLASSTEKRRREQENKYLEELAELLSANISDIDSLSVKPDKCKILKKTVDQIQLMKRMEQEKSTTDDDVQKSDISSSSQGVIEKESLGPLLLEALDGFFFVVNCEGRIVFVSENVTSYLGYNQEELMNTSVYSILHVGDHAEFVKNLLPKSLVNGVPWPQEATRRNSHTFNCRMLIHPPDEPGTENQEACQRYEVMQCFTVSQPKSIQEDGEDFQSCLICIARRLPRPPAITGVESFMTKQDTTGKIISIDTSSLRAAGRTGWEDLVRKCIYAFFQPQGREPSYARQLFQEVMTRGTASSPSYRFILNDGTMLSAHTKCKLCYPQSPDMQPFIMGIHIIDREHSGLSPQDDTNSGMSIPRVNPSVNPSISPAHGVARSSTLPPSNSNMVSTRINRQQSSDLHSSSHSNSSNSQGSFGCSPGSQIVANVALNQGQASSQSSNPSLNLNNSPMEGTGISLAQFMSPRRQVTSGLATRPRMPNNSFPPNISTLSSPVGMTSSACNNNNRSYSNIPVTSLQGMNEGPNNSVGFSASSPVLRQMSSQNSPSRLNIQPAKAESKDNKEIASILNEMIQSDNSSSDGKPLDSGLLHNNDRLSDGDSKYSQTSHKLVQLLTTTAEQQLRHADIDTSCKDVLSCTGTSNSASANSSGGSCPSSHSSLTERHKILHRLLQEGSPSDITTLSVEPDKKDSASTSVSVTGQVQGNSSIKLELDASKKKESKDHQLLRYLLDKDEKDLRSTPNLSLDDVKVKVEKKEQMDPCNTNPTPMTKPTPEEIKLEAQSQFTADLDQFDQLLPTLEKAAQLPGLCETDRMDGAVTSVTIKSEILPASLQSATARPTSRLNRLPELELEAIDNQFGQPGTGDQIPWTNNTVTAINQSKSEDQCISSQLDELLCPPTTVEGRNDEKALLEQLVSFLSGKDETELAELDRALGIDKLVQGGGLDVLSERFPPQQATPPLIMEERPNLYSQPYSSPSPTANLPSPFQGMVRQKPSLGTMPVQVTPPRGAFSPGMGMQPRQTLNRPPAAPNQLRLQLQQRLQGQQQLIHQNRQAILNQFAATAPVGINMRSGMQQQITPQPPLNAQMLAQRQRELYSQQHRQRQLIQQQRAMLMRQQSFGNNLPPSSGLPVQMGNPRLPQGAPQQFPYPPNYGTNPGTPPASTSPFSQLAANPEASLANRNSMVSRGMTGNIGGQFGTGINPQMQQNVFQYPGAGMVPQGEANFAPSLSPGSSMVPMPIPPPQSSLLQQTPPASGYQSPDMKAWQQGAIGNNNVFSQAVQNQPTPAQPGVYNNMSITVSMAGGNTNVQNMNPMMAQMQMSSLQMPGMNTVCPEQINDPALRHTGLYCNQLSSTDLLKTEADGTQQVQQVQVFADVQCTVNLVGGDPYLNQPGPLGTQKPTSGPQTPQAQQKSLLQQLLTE
# Sequence of Peroxisome proliferator-activated receptor gamma/Nuclear receptor coactivator 3 (P37231 whole entry): as the sequence (P37231 whole entry) above
# Sequence of Peroxisome proliferator-activated receptor gamma/Nuclear receptor coactivator 3 (Q9Y6Q9 whole entry, further chain): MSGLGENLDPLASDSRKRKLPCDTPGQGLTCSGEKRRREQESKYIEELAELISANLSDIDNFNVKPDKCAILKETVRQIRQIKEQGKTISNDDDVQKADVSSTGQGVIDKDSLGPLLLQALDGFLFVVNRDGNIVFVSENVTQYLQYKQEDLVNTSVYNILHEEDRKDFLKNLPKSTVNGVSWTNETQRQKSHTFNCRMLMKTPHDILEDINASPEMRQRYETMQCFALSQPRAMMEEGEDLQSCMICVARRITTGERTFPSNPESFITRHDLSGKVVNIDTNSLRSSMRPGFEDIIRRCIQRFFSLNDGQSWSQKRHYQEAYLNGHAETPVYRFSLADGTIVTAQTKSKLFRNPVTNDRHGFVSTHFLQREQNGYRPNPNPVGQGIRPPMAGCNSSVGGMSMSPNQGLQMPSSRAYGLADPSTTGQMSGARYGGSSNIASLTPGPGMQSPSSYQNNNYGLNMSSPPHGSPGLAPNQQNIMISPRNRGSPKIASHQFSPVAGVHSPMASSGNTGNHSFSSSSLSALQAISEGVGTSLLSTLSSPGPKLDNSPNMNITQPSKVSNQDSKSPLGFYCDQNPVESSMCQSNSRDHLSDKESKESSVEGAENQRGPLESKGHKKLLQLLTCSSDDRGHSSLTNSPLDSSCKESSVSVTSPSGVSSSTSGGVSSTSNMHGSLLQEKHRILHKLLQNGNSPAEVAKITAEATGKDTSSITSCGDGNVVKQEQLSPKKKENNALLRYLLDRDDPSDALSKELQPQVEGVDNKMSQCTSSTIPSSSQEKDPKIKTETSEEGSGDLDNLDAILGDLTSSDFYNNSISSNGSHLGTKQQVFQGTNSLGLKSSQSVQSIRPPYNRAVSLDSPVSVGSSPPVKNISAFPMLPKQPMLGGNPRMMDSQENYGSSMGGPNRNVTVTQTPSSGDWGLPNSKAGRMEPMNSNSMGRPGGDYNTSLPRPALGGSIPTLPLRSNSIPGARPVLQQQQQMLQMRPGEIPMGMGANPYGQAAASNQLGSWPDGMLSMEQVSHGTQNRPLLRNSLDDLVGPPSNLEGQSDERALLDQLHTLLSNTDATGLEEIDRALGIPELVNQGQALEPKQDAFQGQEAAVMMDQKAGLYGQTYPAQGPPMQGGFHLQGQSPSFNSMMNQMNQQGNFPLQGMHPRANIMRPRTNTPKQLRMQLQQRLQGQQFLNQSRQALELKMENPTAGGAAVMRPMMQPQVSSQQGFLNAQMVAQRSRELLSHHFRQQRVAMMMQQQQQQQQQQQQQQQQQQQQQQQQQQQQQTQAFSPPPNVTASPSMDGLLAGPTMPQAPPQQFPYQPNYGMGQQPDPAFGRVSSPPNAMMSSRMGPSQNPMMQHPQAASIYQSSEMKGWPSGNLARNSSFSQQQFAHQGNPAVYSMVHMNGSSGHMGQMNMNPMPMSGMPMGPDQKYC
# Sequence of DNA dC->dU-editing enzyme APOBEC-3A (P31941 whole entry): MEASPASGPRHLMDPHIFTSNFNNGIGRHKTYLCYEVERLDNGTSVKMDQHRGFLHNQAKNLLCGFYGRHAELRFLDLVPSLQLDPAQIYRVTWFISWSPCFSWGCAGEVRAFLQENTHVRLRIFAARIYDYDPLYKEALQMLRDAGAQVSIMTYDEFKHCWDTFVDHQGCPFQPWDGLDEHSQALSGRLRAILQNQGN
# Sequence of Glyceraldehyde-3-phosphate dehydrogenase (P04406 whole entry): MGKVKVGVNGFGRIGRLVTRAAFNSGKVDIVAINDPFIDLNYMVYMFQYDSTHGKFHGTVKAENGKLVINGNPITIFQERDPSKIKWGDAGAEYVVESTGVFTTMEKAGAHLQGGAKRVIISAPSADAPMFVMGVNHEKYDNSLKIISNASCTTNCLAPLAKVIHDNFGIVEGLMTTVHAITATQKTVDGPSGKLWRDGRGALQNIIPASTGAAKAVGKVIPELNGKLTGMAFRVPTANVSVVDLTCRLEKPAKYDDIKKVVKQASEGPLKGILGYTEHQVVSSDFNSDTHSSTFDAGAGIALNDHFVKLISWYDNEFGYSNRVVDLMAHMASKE
structure (smiles),measurement,setting,value
COC(=O)CNc1nnc(S)nc1O,EC50,[1],53.6 µM (not active)
same,EC50,[2],2.15 µM (active)
same,EC50,[3],1.61 µM (active)
O=C1c2c(Cl)c(Cl)c(Cl)c(Cl)c2C(=O)N1c1nc(Cc2ccccc2)n[nH]1,IC50,[4],> 100 µM (inactive)
same,IC50,[5],> 100 µM (not active)
O=C1NC(=S)N(C2CC2)C(=O)/C1=C/c1ccc2c(c1)CCN2CCCCl,IC50,[6],95.6 µM (active)
same,IC50,Coagulation factor XII,> 50 µM (inactive)
same,CC50,[7],85.4 µM (active)
same,IC50,[8],2.61 µM (active)
CCCC[N@+]12CC[C@H](CC1)C(=C(c1ccccc1)c1ccccc1)C2,IC50,[9],2.16 µM (active)
same,IC50,[10],2.19 µM (active)
Oc1ccc(N=Nc2ccc3c(c2)OCCO3)c2ncccc12,EC50,Streptococcus,2.27 µM (active)
same,EC50,[11],> 180 µM (inactive)
same,IC50,Exodeoxyribonuclease V,> 119 µM (inactive)
same,EC50,[12],0.872 µM (active)
same,EC50,[13],> 150 µM (inconclusive)
same,IC50,[14],> 32 µM
same,EC50,[15],11.7 µM (active)
same,AC50,INS1,2.32 µM (active)
same,EC50,[16],0.91 µM (active)
same,EC50,[17],4.43 µM (active)
same,EC50,[18],0.682 µM (active)
same,IC50,[19],> 119 µM (inactive)
same,IC50,[20],4.93 µM (active)
same,EC50,Beta-galactosidase,25.3 µM (active)
